Key:
[1] = system: U87GM cells; assay: Plate-based evaluation of cell binding (on-cell Western); conditions: <0.5 μM; in comparison to a specific targeted probe
Experimental: Compound 10/RGD and 10/EGF were prepared to be used in conjunction with 10 to estimate relative non-specific binding of the dye relative to a labeled targeted agent. The on-cell Western was the format used and imaged on the Odyssey Sa.
In a plate-based evaluation of 10/RGD on U87GM cells, 10 was added to assess level of cell binding (FIG. 27).

[2] = In vivo clearance study of carboxylate 10; parameters: species or system Nude mice
Experimental: Nude mice were used for the clearance study with the carboxylate and for the targeted agent evaluation. A dose of 2 nmol 10 was administered intravenously (IV) via the tail vein of the mouse and serial imaged over the next 48 h with the Pearl Impulse imaging system. Excised organs were evaluated to assess organs with the highest retention.

[3] = Absorption and emission of the dye; type: physicochemical
Experimental: Compound 9 (80 mg), 3-(2-carboxyethyl)phenylboronic acid (40 mg), and cesium carbonate (20 mg) were stirred into water (20 mL) under nitrogen at room temperature. Tetrakis(triphenylphosphine)palladium (0) (10 mg) were added to the reaction mixture. The mixture was refluxed for 4 h, and the solvent and volatile compounds then were evaporated under vacuum. The crude product was purified by flash chromatography on silica 60, 200-400 mesh, eluting with a 20/80 acetonitrile/water mixture. The purified compound 56 had λMeOH=680 nm, λPBS=672 nm, ε=160,000.
Fluorescence determinations were made at a fixed antibody concentration of 10 μg/mL in physiological buffer using dye-labeled goat anti-rabbit (GAR) conjugates prepared at LI-COR (FIGS. 13A-B and 14). A dye-labeled lactalbumin conjugate was also tested (FIG. 15).
20's absorbance and emission maximum is at 676 nm in aqueous solution and at 693 nm in methanol.

[4] = system: A431 subcutaneous tumors; assay: In vivo dose testing of 10/EGF; parameters: species or system nude mice; conditions: excised organs 48 h post injection
Experimental: Testing for optimal dose in nude mice bearing A431 subcutaneous tumors was done. Four doses were tested: 0.5, 1, 2, and 3 nmoles. Two mice were used per treatment dosage. A431 tumor cells were implanted on the right hip and allowed to reach approximately 0.5 cm. FIG. 31 presents dorsal views of all animals under a common LUT.

[5] = system: U87 tumor cells (integrins); assay: In vivo optical imaging with 10-labeled cyclo(RGDfK) probe; parameters: species or system Mice
Experimental: The suitability of compound 10 for in vivo optical imaging was evaluated using an 10-labeled cyclo(Arg-Gly-Asp-D-Phe-Lys) (RGDfK) probe. This probe was specifically designed to target integrins. Integrins are cell surface heterodimeric glycoproteins important in cell adhesion and signal transduction. This receptor class is involved in tumor growth, tumor invasiveness, metastasis, tumor-induced angiogenesis, inflammation, osteoporosis, and rheumatoid arthritis.
Mice were implanted with U87 tumor cells. The animals were injected and imaged while the tumors were still extremely small. This provided a good test of how visible the tumors are over any background signal that the probe detected.
Tumors were excised, weighed, and imaged on a Pearl Imager (FIG. 3).

[6] = Photostability comparison on nitrocellulose membrane; type: physicochemical; conditions: dye-labeled GAR on nitrocellulose; repeated Odyssey scans; normalized to time zero
Experimental: Test samples were prepared by spotting equimolar amounts of dye (i.e., goat anti-rabbit (GAR) secondary antibodies labeled with the appropriate dye) onto nitrocellulose membrane. The membrane was then scanned repeatedly on an Odyssey Infrared Imager, and the signal intensity was normalized to the control signal at time zero (FIG. 19A-B).

With `CC1(C)C(/C=C/C(=C/C=C2/N(CCCS(=O)(=O)[O-])c3ccc(S(=O)(=O)[O-])cc3C2(C)C)c2cccc(CCC(=O)O)c2)=Nc2c1cc(Cl)c[n+]2CCCS(=O)(=O)[O-].[Na+].[Na+]` [Compound 10] the “level of cell binding” value [1] was “low levels of cell binding”, the “time of signal spike” value ([2]; 2 nmol IV) was “about 1 hour” and the “retention in the kidneys” value ([2]; 2 nmol IV, 44 hr period) was “very little retention in the kidneys, if at all”. For the same compound, the route of clearance ([2]; 2 nmol IV, 44 hr period) was “clears via the liver/gall bladder/intestinal tract”, the “time by which total signal is dramatically reduced” value ([2]; 2 nmol IV, whole-image ROI) was ≤ 4 h and the “retention in excised organs” value ([2]; 44 hr post injection, liver, heart, kidney, spleen, intestine, muscle, tumor) was “very little retention of probe”. The “Extinction Coefficient” value ([3]; MeOH) was 170,000, the “Max. Abs.” value ([3]; MeOH) was 680 nm and the “Max. Emis.” value ([3]; MeOH) was 694 nm. The “Extinction Coefficient” value ([3]; PBS) was 160,000, the “Max. Abs.” value ([3]; PBS) was 672 nm and the “Max. Emis.” value ([3]; PBS) was 694 nm. For the same compound, the “signal from the tumor cells” value [4] was “very little signal from the tumor cells”.
For `CC1(C)C(/C=C/C(=C/C=C2\N(CCCS(=O)(=O)[O-])c3ccc(S(=O)(=O)[O-])cc3C2(C)C)c2cccc(CCC(=O)NCCCC[C@@H]3NC(=O)[C@@H](Cc4ccccc4)NC(=O)[C@H](CC(=O)[O-])NC(=O)CNC(=O)[C@H](CCCNC(=N)N)NC3=O)c2)=Nc2c1cc(Cl)c[n+]2CCCS(=O)(=O)[O-].[Na+].[Na+].[Na+]` [Compound 21, Sodium 2-((2S,5R,8S,11S)-5-benzyl-8-(4-(3-(3-((1E,3Z,5Z)-1-(5-chloro-3,3-dimethyl-7-(3-sulfonatopropyl)-3H-pyrrolo[2,3-b]pyridin-7-ium-2-yl)-5-(3,3-dimethyl-5-sulfonato-1-(3-sulfonatopropyl)indolin-2-ylidene)penta-1,3-dien-3-yl)phenyl)propanamido)butyl)-11-(3-guanidinopropyl)-3,6,9,12,15-pentaoxo-1,4,7,10,13-pentaazacyclopentadecan-2-yl)acetate], the clearance and background ([5]; 1 nmol) was “cleared the system without an undue level of background”, the “time post-injection by which tumors were visible” value ([5]; 1 nmol intravenously, two tumor-bearing mice) was ≤ 5 h and the detectability of tumors ([5]; 1 nmol, extremely small tumors (9 and 15 mg)) was “easily detectable”.
In the case of `C[Si](C)(CCC[N+](CCCS(=O)(=O)[O-])(CCCS(=O)(=O)[O-])CCCS(=O)(=O)[O-])O[Si]1(O[Si](C)(C)CCC[N+](CCCS(=O)(=O)[O-])(CCCS(=O)(=O)[O-])CCCS(=O)(=O)[O-])n2c3c4ccccc4c2N=C2N=C(N=c4c5ccccc5c(n41)=NC1=NC(=N3)c3ccccc31)c1cccc(OCCCOC(=O)NCCCCCC(=O)ON3C(=O)CCC3=O)c12.[Na+].[Na+].[Na+].[Na+]` (centres unmarked) [Compound 700DX], the “relative fluorescence on repeated scanning (photostability)” value [6] is reported as “unchanged”.

From US9408924B2, “Bioconjugates of cyanine dyes” (LI-COR, INC., priority 2010, dated 2016)
